Molecules are shown by their SMILES.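 Briefly, cells in 96-well plates were exposed to five compound concentrations for 48 h, and endpoints were estimated by linear interpolation. At the GI50, growth is halved. At the TGI there is no net growth.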 Where only a bound is given, the exact number is not on record here.

Experimental findings from PubChem BioAssay (NCI) are described below.

Some test systems named below: ACHN renal; HL-60(TB) leukemia; HT29 colon; MDA-MB-231 breast; RXF 393 renal; SF-295 CNS; SK-MEL-2 melanoma; SK-MEL-28 melanoma; SNB-75 CNS; UACC-62 melanoma.
Holding throughout (assay): inhibition of tumour cell growth, NCI panel, 48 h

For the compound `Nc1cc2nc3ccccc3oc-2cc1=O`, the GI50 in the test on ACHN renal was 12.4 µM; in the test on HL-60(TB) leukemia it was 3.19 µM; in the test on HT29 colon, 2.58 µM; with MDA-MB-231 breast, 22.9 µM; in the test with RXF 393 renal, 5.07 µM; in the test on SF-295 CNS, 1.44 µM. In addition, the GI50 is 6.62 µM in the test with SK-MEL-2 melanoma, 1.79 µM with SK-MEL-28 melanoma, 1.82 µM in the test with SNB-75 CNS and 1.67 µM in the test with UACC-62 melanoma. The TGI is over 79 µM in the test on ACHN renal; over 100 µM in the test on HL-60(TB) leukemia; over 21.7 µM in the test with HT29 colon; over 100 µM in the test on MDA-MB-231 breast; 14.2 µM with RXF 393 renal; 3.79 µM with SF-295 CNS. Also, the TGI with SK-MEL-2 melanoma turned out to be 25.7 µM; in the test with SK-MEL-28 melanoma it was 3.45 µM; with SNB-75 CNS it was 4.63 µM; in the test with UACC-62 melanoma, 3.27 µM.
As for `C[C@]12CC[C@@H]3c4ccc(O)cc4CC[C@H]3[C@@H]1CC[C@@H]2NS(=O)(=O)c1ccc2ccccc2c1`, the GI50 in the test with ACHN renal was 2.95 µM; in the test with HL-60(TB) leukemia it was 3.31 µM; in the test with HT29 colon, 2.47 µM; with MDA-MB-231 breast, 1.81 µM; with RXF 393 renal, 1.84 µM; with SF-295 CNS, 2.25 µM. In addition, the GI50 in the test on SK-MEL-2 melanoma is 2.75 µM; in the test with SK-MEL-28 melanoma, 2.31 µM; in the test with SNB-75 CNS, 2.1 µM; with UACC-62 melanoma, 1.75 µM. In addition, the TGI with ACHN renal turned out to be 10.5 µM; with HL-60(TB) leukemia it was 13.7 µM; in the test with HT29 colon, 6.11 µM; in the test on MDA-MB-231 breast, 4.68 µM; with RXF 393 renal, 4.33 µM; in the test on SF-295 CNS it was 6.03 µM. The TGI stood at 7.94 µM with SK-MEL-2 melanoma, 5.92 µM with SK-MEL-28 melanoma, 12.6 µM with SNB-75 CNS and 3.9 µM with UACC-62 melanoma.
Take `CCOC(=O)c1nc2cc(C(F)(F)F)ccc2[n+]([O-])c1C`: the GI50 is over 100 µM in the test with ACHN renal; over 100 µM with HL-60(TB) leukemia; over 100 µM with HT29 colon; over 100 µM with MDA-MB-231 breast; 33.9 µM with RXF 393 renal; over 100 µM with SF-295 CNS. Besides, the GI50 in the test with SK-MEL-2 melanoma, in the test with SK-MEL-28 melanoma, in the test with SNB-75 CNS and in the test on UACC-62 melanoma was over 100 µM throughout. Also, the TGI with ACHN renal, in the test on HL-60(TB) leukemia, with HT29 colon, in the test on MDA-MB-231 breast, in the test on RXF 393 renal and with SF-295 CNS was over 100 µM each time. Further, the TGI in the test with SK-MEL-2 melanoma, in the test with SK-MEL-28 melanoma, with SNB-75 CNS and in the test on UACC-62 melanoma was over 100 µM in each case.
For the compound `COC(=O)[C@@H](OC)[C@@H]1Cc2cc3cc(OC4CC(OC5CC(O)C(O)C(C)O5)C(O)C(C)O4)c(C)c(O)c3c(O)c2C(=O)[C@H]1OC1CC(OC2CC(OC3CC(C)(O)C(O)C(C)O3)C(O)C(C)O2)C(O)C(C)O1` (stereo partly specified), the GI50 was 0.0313 µM in the test on ACHN renal; 0.0405 µM with HL-60(TB) leukemia; 0.039 µM in the test on HT29 colon; 0.0479 µM in the test with MDA-MB-231 breast; 0.0263 µM in the test on RXF 393 renal; 0.0357 µM in the test with SF-295 CNS. Further, the GI50 is 0.0355 µM in the test on SK-MEL-2 melanoma, 0.0312 µM in the test with SK-MEL-28 melanoma, 0.0212 µM with SNB-75 CNS and 0.0194 µM with UACC-62 melanoma. Moreover, the TGI is over 16.5 µM in the test on ACHN renal; 0.74 µM in the test on HL-60(TB) leukemia; 0.148 µM in the test on MDA-MB-231 breast; 0.0623 µM in the test with RXF 393 renal; over 5.45 µM with SF-295 CNS; 0.0777 µM with SK-MEL-2 melanoma. The figures for the TGI in the test on SK-MEL-28 melanoma, in the test with SNB-75 CNS and in the test with UACC-62 melanoma were 0.106 µM, 0.0487 µM and 0.0469 µM, respectively.
In the case of `O=Nc1c(O)c2ccccc2c2ccccc12`, the GI50 with ACHN renal was 1.02 µM; in the test with HL-60(TB) leukemia, 2.47 µM; in the test on HT29 colon, 2.83 µM; in the test on MDA-MB-231 breast it was 0.849 µM; with RXF 393 renal, 1.72 µM; in the test on SF-295 CNS, 1.64 µM. Also, the GI50 in the test with SK-MEL-2 melanoma is 1.8 µM; in the test with SK-MEL-28 melanoma it was 1.68 µM; in the test with SNB-75 CNS, 1.51 µM; in the test on UACC-62 melanoma it was 0.99 µM. Besides, the TGI was found to be 7.1 µM with ACHN renal; 7.97 µM with HL-60(TB) leukemia; 7.88 µM in the test with HT29 colon; 5.25 µM with MDA-MB-231 breast; 3.23 µM with RXF 393 renal; 3.5 µM with SF-295 CNS. The TGI is 3.99 µM in the test with SK-MEL-2 melanoma, 3.07 µM in the test on SK-MEL-28 melanoma, 2.92 µM with SNB-75 CNS and 2.37 µM in the test with UACC-62 melanoma.
For `CN(C)CCOc1ccc(-c2cc(-c3ccc4c(c3)CC/C4=N\O)c(-c3ccncc3)o2)cc1`, the GI50 in the test with ACHN renal was 3.62 µM; in the test with HL-60(TB) leukemia it was 5.46 µM; in the test with HT29 colon it was 0.451 µM; in the test with MDA-MB-231 breast it was 3.34 µM; in the test with RXF 393 renal, 3.07 µM; with SF-295 CNS, 3.8 µM. Further, the GI50 in the test with SK-MEL-2 melanoma was 0.281 µM; in the test with SK-MEL-28 melanoma it was 0.111 µM; in the test with SNB-75 CNS it was 1.27 µM; with UACC-62 melanoma, 0.0906 µM. Moreover, the TGI in the test with ACHN renal stood at 6.98 µM; with HL-60(TB) leukemia, 10.8 µM; in the test with HT29 colon it was 4.39 µM; with MDA-MB-231 breast, 7.19 µM; in the test with RXF 393 renal it was 6.78 µM; in the test on SF-295 CNS it was 7.68 µM. In addition, the TGI in the test with SK-MEL-2 melanoma is 3.54 µM; with SK-MEL-28 melanoma, 3.71 µM; in the test on SNB-75 CNS, 6 µM; in the test on UACC-62 melanoma it was 3.79 µM.
For `NCCN1C(=O)c2ccccc2C1(O)c1ccc(Cl)cc1` (stereo unspecified), the TGI with ACHN renal came to 59.3 µM; in the test on HL-60(TB) leukemia, 70.8 µM; in the test with HT29 colon, 39.8 µM; in the test on MDA-MB-231 breast, 34.7 µM; with RXF 393 renal it was 55.8 µM; in the test with SF-295 CNS, 55.3 µM. The TGI stood at 30.8 µM in the test on SK-MEL-2 melanoma, 33.2 µM with SK-MEL-28 melanoma, 97.6 µM in the test on SNB-75 CNS and 30.7 µM in the test on UACC-62 melanoma.
As to `Cc1cc2c(=O)[nH]c(N)nc2nc1C`, the TGI in the test with ACHN renal, in the test with HL-60(TB) leukemia, with HT29 colon, in the test on MDA-MB-231 breast, in the test with RXF 393 renal and in the test with SF-295 CNS was over 100 µM in each case. Moreover, the TGI in the test with SK-MEL-2 melanoma, with SK-MEL-28 melanoma, in the test with SNB-75 CNS and with UACC-62 melanoma was over 100 µM throughout.
Turning to `CC(=O)c1cccc(NC(=O)c2ccc(NC3=C(Cl)C(=O)N(Cc4ccccc4)C3=O)cc2)c1`, the GI50 with ACHN renal is 22.7 µM; with HL-60(TB) leukemia, 2.83 µM; with HT29 colon, 27.3 µM; in the test on MDA-MB-231 breast, 15 µM; with RXF 393 renal it was 24 µM; in the test with SF-295 CNS, 15.3 µM. For the same compound, the GI50 with SK-MEL-2 melanoma was 2.38 µM; with SK-MEL-28 melanoma it was 25.6 µM; in the test with SNB-75 CNS, 30.1 µM; with UACC-62 melanoma, 13.8 µM. The TGI with ACHN renal is 49.1 µM; in the test with HL-60(TB) leukemia, 17.2 µM; with HT29 colon it was over 100 µM; in the test with MDA-MB-231 breast, 38.3 µM; with RXF 393 renal, over 100 µM; in the test with SF-295 CNS, 47.8 µM. In addition, the TGI is 11.5 µM in the test on SK-MEL-2 melanoma, over 100 µM in the test on SK-MEL-28 melanoma, over 100 µM in the test with SNB-75 CNS and 29.3 µM in the test with UACC-62 melanoma.
With `COc1cc(C2C3=C(COC3=O)Nc3cc4c(cc32)OCO4)cc2c1OCO2` (stereo unspecified), the GI50 in the test with ACHN renal was 0.357 µM; in the test with HL-60(TB) leukemia it was 0.059 µM; in the test with HT29 colon, 0.0722 µM; in the test with MDA-MB-231 breast it was 0.128 µM; in the test on RXF 393 renal, 0.0304 µM; in the test on SF-295 CNS it was 0.0299 µM. Further, the GI50 was 0.113 µM in the test with SK-MEL-2 melanoma, 0.0337 µM in the test on SNB-75 CNS and 0.0519 µM in the test on UACC-62 melanoma. Besides, the TGI in the test with ACHN renal was over 100 µM; in the test with HT29 colon it was 3.21 µM; with MDA-MB-231 breast, over 100 µM; in the test with RXF 393 renal, over 100 µM; with SK-MEL-2 melanoma, over 26 µM; with SK-MEL-28 melanoma it was over 100 µM. Also, the TGI in the test with SNB-75 CNS is 2.75 µM; with UACC-62 melanoma, over 100 µM.
`NC(CO)C(=O)NCC(=O)O` (stereo unspecified): the TGI with ACHN renal, in the test on HL-60(TB) leukemia, in the test with HT29 colon, in the test on MDA-MB-231 breast, in the test with RXF 393 renal and in the test with SF-295 CNS was over 100 µM in each case. The TGI in the test on SK-MEL-2 melanoma, in the test with SK-MEL-28 melanoma, in the test on SNB-75 CNS and in the test with UACC-62 melanoma was over 100 µM each time.
Turning to `CCN(Cc1cccc(F)c1F)c1ccc(CO)c(Cl)c1`, the GI50 is 17.8 µM with ACHN renal; 7.25 µM in the test with HL-60(TB) leukemia; 3.83 µM in the test on HT29 colon; 16.1 µM with MDA-MB-231 breast; 1.89 µM in the test on RXF 393 renal; 0.284 µM with SF-295 CNS. Moreover, the GI50 is 4.68 µM with SK-MEL-2 melanoma, 14 µM in the test with SK-MEL-28 melanoma, 12.4 µM in the test on SNB-75 CNS and 0.0842 µM with UACC-62 melanoma. In addition, the TGI was over 51.7 µM with ACHN renal; 41.2 µM in the test with HL-60(TB) leukemia; 19 µM in the test on HT29 colon; 36.1 µM in the test with MDA-MB-231 breast; 14.9 µM in the test on RXF 393 renal; 25 µM in the test on SF-295 CNS. Also, the TGI with SK-MEL-2 melanoma amounted to 22.6 µM; in the test on SK-MEL-28 melanoma it was 30.1 µM; in the test on SNB-75 CNS it was 40.5 µM; in the test on UACC-62 melanoma, 0.519 µM.
